According to patent US6740760B2, “D-proline derivatives” (Hoffmann-La Roche Inc., priority 1997, dated 2004):

Columns and labels:
B. fragilis = details: disclosed in WO 97/10225; cited from earlier work

melting point	SMILES	antibacterial activity against B. fragilis (B. fragilis)
210 to 214 °C	O=C(O)[C@H]1CCCN1C(=O)Cc1ccc(CC(=O)N2CCC[C@@H]2C(=O)O)cc1	
	C[C@@H](CS)C(=O)N1CCC[C@@H]1C(=O)O [1-[(R)3-Mercapto-2-methyl-propionyl]-(R)-pyrrolidine-2-carboxylic acid]	antibacterial activity
	C[C@H](CS)C(=O)N1CCC[C@@H]1C(=O)O [1-[(S)3-Mercapto-2-methyl-propionyl]-(R)-pyrrolidine-2-carboxylic acid]	antibacterial activity
